From patent US8742113B2, “Furanone derivative” (SBI Biotech Co., Ltd., priority 2011, dated 2014)
Where two headings read alike, the source gives them in different places.

Tests used:
[1] = test system: MCM2 phosphorylation in COLO205 cells; experiment: Inhibitory effect on MCM2 phosphorylation using cells (Western blot); format: cell-based; conditions: Homo sapiens, COLO 205, 0.1 μM test compound, 24 hours, class by percent phosphorylation of MCM2, read-out: Test Example 2 Inhibitory effect on MCM2 phosphorylation
Experimental: [Inhibitory Effect on Phosphorylation Using Cells]
COLO205 cells derived from human colon adenocarcinoma (RCB2127, RIKEN BRC) were cultured in 10 cm dishes using RPMI-1640 medium (SIGMA, R8758) supplemented with 10% FCS (Equitech-bio) and 5% penicillin/streptomycin (GIBCO, 15140). After the cells were cultured to a confluence of 70 to 90%, the medium was removed, and the cells were treated with trypsin (2 mL, TrypLE Express, GIBCO, 12604-021) and then harvested using a new medium.
COLO205 cells were seeded in 6-well plates (FALCON, 35046) to 2.5×10^5 cells (1 ml) per well and cultured overnight in a 5% CO2 incubator. A drug solution, which was prepared by adding 1.5 μl of a 0.1-mM stock solution in DMSO of a test compound to 500 μl of medium, was added to each well (to a final drug concentration of 0.1 μM), and then cultured for another 24 hours.
Cells were cultured for 24 hours in the presence of a test compound, harvested using a similar way as described above, washed with PBS, and then pelletized and stored at −80° C. The frozen cells were thawed, subsequently suspended immediately in 2×SDS-PAGE electrophoresis buffer (1×10^5 cells per 10 μl), and heated at 95° C. for 10 minutes, leading to the dissolution and denaturation of the proteins. The resulting sample solutions were subjected to SDS-PAGE using a 5-20% gradient acrylamide gel (e-PAGEL (5-20%), ATTO, E-T520L). After the electrophoresis was completed, the gel was immersed in tris-glycine buffer supplemented with 20% methanol, and the proteins in the gel were transferred onto a PVDF membrane (MILLIPORE, Immobilon-P, IPVH00010) using a semi-dry transfer apparatus (TRNS-BLOT SD SEMI-DRY […] CELL, BIO RAD).
The transferred PVDF membrane was blocked with 5% skim milk (Difco Skim Milk, BD, 232100), and then subjected to reaction with an anti-MCM2 goat antibody (N-19, Santa Cruz, sc-9839) or anti-phosphorylated MCM2 rabbit antibody (S53) (Bethyl, A300-756A) as a primary antibody and additionally with an anti-α tubulin mouse antibody (Clone DM 1A, SIGMA, 9026) as an internal control. Each band was detected by chemiluminescence using an HRP-labeled anti-goat IgG donkey antibody (Santa Cruz, sc2020), anti-rabbit IgG sheep antibody (Roche, 12015218001), or anti-mouse IgG donkey antibody (Jackson ImmunoResearch, 715-035-151) as a secondary antibody. The combinations of and the diluted concentrations of the primary and secondary antibodies were as indicated below.
The bands which were detected were normalized using the amount of endogenous α-tubulin as a reference, and the percent phosphorylation of MCM2 was calculated for each of the tested compounds. Their inhibitory effects on MCM2 phosphorylation were indicated by a triple asterisk (***) in the case where the percent phosphorylation of MCM2 was less than 20%, by a dual asterisk (**) in the case where the percent phosphorylation of MCM2 was not less than 20% and less than 50%, and by a single asterisk (*) in the case where the percent phosphorylation of MCM2 was not less than 50% and less than 70%.

[2] = molecular target: human Cdc7/human ASK complex protein (Homo sapiens (Human), UniProt O00311); experiment: Inhibitory effect on Cdc7 protein kinase (MSA assay kit); format: biochemical
human Cdc7/human ASK complex protein, sequence (O00311 whole entry): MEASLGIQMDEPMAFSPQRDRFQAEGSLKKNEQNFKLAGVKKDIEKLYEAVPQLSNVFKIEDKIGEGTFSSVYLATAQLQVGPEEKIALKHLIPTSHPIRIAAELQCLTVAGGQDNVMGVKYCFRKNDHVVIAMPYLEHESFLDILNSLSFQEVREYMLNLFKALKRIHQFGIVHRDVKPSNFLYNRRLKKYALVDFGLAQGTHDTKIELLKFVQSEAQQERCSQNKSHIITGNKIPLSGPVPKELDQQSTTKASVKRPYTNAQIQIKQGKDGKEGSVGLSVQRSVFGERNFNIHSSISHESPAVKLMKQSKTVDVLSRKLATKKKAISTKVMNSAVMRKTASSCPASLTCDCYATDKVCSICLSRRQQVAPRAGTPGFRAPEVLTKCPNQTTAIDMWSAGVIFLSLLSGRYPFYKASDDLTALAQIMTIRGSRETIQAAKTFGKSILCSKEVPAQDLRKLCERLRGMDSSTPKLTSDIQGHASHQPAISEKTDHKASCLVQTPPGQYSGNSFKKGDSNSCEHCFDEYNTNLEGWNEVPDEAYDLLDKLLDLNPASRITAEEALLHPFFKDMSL
human Cdc7/human ASK complex protein, sequence (Q9UBU7 whole entry partner): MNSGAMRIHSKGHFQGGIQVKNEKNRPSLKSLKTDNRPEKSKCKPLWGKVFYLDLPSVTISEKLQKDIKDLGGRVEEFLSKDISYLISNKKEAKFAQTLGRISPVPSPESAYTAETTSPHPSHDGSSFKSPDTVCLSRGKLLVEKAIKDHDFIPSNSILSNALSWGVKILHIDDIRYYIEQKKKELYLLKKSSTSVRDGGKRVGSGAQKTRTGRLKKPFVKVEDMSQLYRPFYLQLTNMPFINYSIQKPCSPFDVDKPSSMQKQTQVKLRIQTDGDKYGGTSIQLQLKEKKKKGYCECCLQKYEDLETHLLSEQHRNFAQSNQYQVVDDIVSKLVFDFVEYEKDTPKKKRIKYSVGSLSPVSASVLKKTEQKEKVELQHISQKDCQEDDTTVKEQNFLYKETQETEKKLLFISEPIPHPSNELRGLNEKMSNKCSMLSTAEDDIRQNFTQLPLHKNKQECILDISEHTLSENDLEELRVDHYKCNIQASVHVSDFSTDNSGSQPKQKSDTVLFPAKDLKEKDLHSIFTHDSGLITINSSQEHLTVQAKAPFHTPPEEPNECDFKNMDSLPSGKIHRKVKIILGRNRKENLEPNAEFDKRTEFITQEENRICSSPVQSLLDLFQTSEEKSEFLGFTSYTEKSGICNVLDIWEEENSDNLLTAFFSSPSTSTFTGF
Experimental: [Inhibitory Effect on Cdc7 Protein Kinase]
Measurement of kinase activity was carried out using an MSA assay kit (QuickScout Screening Assist™ Kit, Carna Biosciences, Inc.).
Assay buffer (20 mM HEPES, 0.01% Triton X-100™, 2 mM dithiothreitol, pH 7.5) was used to prepare a substrate mixture solution comprising 4 μM of a kinase-reaction substrate (FITC-labeled MCM2 peptide), 40 mM MgCl2, and 20 μM ATP.
The enzyme supplied in the kit (human Cdc7/human ASK complex protein) was diluted in the assay buffer so as to be at 7 nM, thereby preparing an enzyme solution.
The stock solution of each test compound was diluted in DMSO to prepare diluted DMSO solutions of 10 concentrations (0.00003 mM, 0.0001 mM, 0.0003 mM, 0.001 mM, 0.003 mM, 0.01 mM, 0.03 mM, 0.1 mM, 0.3 mM, 1 mM), each of which was further diluted 25 times in the assay buffer to make a drug solution (a solution containing 4% DMSO).
The kinase reaction was performed in wells of a polypropylene 384-well plate in which 5 μl of each of the drug solutions or of a solvent (assay buffer containing 4% DMSO), 5 μl of the substrate mixture solution, and 10 μl of the enzyme solution were mixed. The assay buffer, instead of the enzyme solution, was added to blank wells. After the reaction at room temperature for 5 hours, 60 μl of the termination buffer supplied in the kit was added to each well to stop the reaction. The percent inhibition of each reaction was determined using a LabChip EZ Reader II system (manufactured by Caliper Life Sciences), according to the protocol provided with the assay kit. In this case, the peak heights of the separated substrate and the phosphorylated substrate were represented as S and P, respectively, and the percent inhibition (%) by a tested compound was calculated according to the following formula: Percent inhibition(%)=(1−(C−A)/(B−A))×100 wherein A denotes P/(P+S) for a blank well, B denotes P/(P+S) for a solvent well, and C denotes P/(P+S) for a compound-added well.
The IC50 value of a tested compound was calculated by regression analysis of the percent inhibition values versus the (logarithmic) concentrations of the tested compound.

[3] = human Cdc7/human ASK complex, FITC-labeled MCM2 peptide substrate, reaction 5 hours at room temperature, read-out: Test Example 1 Cdc7 IC50 value

| Compound | inhibition at 0.1 µM [1] | IC50 [2, 3] | IC50 [2] |
| --- | --- | --- | --- |
| O=C(O)C1=C(Nc2ccccc2)O/C(=C\c2c[nH]c3ncccc23)C1=O [Example 22, 5-[(1H-Pyrrolo[2,3-b]pyridin-3-yl)methylene]-4-oxo-2-(phenylamino)-4,5-dihydrofuran-3-carboxylic acid] | 50 to 70% | – | – |
| O=C(OCCCO)C1=C(Nc2ccc(F)cc2)O/C(=C\c2c[nH]c3ncccc23)C1=O [Example 89, 3-Hydroxypropyl 5-[(1H-pyrrolo[2,3-b]pyridin-3-yl)methylene]-2-[(4-fluorophenyl)amino]-4-oxo-4,5-dihydrofuran-3-carboxylate] | < 20% | 3 nM | – |
| CCOC(=O)C1=C(N2CCc3ccc(OC)cc3C2)O/C(=C\c2c[nH]c3ncccc23)C1=O [Example 244, Ethyl 5-[(1H-pyrrolo[2,3-b]pyridin-3-yl)methylene]-2-(7-methoxy-3,4-dihydroisoquinolin-2(1H)-yl)-4-oxo-4,5-dihydrofuran-3-carboxylate] | < 20% | 4 nM | – |
| CCOC(=O)C1=C(Nc2ccc(OCCO)cc2F)OC(=Cc2c[nH]c3ncccc23)C1=O [Example 81, Ethyl 5-[(1H-pyrrolo[2,3-b]pyridin-3-yl)methylene]-2-{[2-fluoro-4-(2-hydroxyethoxy)phenyl]amino}-4-oxo-4,5-dihydrofuran-3-carboxylate] | < 20% | 5 nM | – |
| CCOC(=O)C1=C(Nc2ccccc2Cl)O/C(=C\c2c[nH]c3ncccc23)C1=O [Example 15, Ethyl 5-[(1H-pyrrolo[2,3-b]pyridin-3-yl)methylene]-2-[(2-chlorophenyl)amino]-4-oxo-4,5-dihydrofuran-3-carboxylate] | 20 to 50% | 2 nM | – |
| CCOC(=O)C1=C(NN2CCN(CC(F)(F)F)CC2)O/C(=C\c2c[nH]c3ncccc23)C1=O [Example 246, Ethyl 5-[(1H-pyrrolo[2,3-b]pyridin-3-yl)methylene]-4-oxo-2-{[4-(2,2,2-trifluoroethyl)piperazinyl]amino}-4,5-dihydrofuran-3-carboxylate] | < 20% | 8 nM | – |
| CCOC(=O)C1=C(Nc2ccc3cn[nH]c3c2)O/C(=C\c2c[nH]c3ncccc23)C1=O [Example 68, Ethyl 5-[(1H-pyrrolo[2,3-b]pyridin-3-yl)methylene]-2-[(6-indazolyl)amino]-4-oxo-4,5-dihydrofuran-3-carboxylate] | < 20% | 4 nM | – |
| O=C1C=C(NC2CCCCCC2)O/C1=C\c1c[nH]c2ncccc12 [Example 226, 2-[(1H-Pyrrolo[2,3-b]pyridin-3-yl)methylene]-5-(cycloheptylamino)furan-3(2H)-one] | < 20% | 4 nM | – |
| CC(C)OC(=O)C1=C(NN2CCOCC2)O/C(=C\c2c[nH]c3ncccc23)C1=O [Example 245, Isopropyl 5-[(1H-pyrrolo[2,3-b]pyridin-3-yl)methylene]-2-(morpholinoamino)-4-oxo-4,5-dihydrofuran-3-carboxylate] | < 20% | 8 nM | – |
| CCOC(=O)C1=C(N2CCC(C)CC2)O/C(=C\c2c[nH]c3ncccc23)C1=O [Example 78, Ethyl 5-[(1H-pyrrolo[2,3-b]pyridin-3-yl)methylene]-2-(4-methylpiperidino)-4-oxo-4,5-dihydrofuran-3-carboxylate] | < 20% | 11 nM | – |
| Cc1cc(OCCO)ccc1NC1=C(C(=O)OC(C)C)C(=O)/C(=C/c2c[nH]c3ncccc23)O1 [Example 157, Isopropyl 5-[(1H-pyrrolo[2,3-b]pyridin-3-yl)methylene]-2-{[4-(2-hydroxyethoxy)-2-methylphenyl]amino}-4-oxo-4,5-dihydrofuran-3-carboxylate] | 20 to 50% | 3 nM | – |
| CCOC(=O)C1=C(NN2CCOCC2)O/C(=C\c2c[nH]c3ncccc23)C1=O [Example 142, Ethyl 5-[(1H-pyrrolo[2,3-b]pyridin-3-yl)methylene]-2-(morpholinoamino)-4-oxo-4,5-dihydrofuran-3-carboxylate] | 20 to 50% | 3 nM | – |
| CN(C)CCOC(=O)C1=C(Nc2ccc(F)cc2F)O/C(=C\c2c[nH]c3ncccc23)C1=O [Example 91, 2-(Dimethylamino)ethyl 5-[(1H-pyrrolo[2,3-b]pyridin-3-yl)methylene]-2-[(2,4-difluorophenyl)amino]-4-oxo-4,5-dihydrofuran-3-carboxylate] | < 20% | 4 nM | – |
| CCOC(=O)C1=C(Nc2ccc(NCCO)cc2C)O/C(=C\c2c[nH]c3ncccc23)C1=O [Example 126, Ethyl 5-[(1H-pyrrolo[2,3-b]pyridin-3-yl)methylene]-2-({4-[(2-hydroxyethyl)amino]-2-methylphenyl}amino)-4-oxo-4,5-dihydrofuran-3-carboxylate] | < 20% | 3 nM | – |
| Cc1cc(F)ccc1NC1=CC(=O)/C(=C/c2c[nH]c3ncccc23)O1 [Example 233, 2-[(1H-Pyrrolo[2,3-b]pyridin-3-yl)methylene]-5-[(4-fluoro-2-methylphenyl)amino]furan-3(2H)-one] | 20 to 50% | 2 nM | – |
| CCOC(=O)C1=C(Nc2ccc(CN(C)C)cc2C)O/C(=C\c2c[nH]c3ncccc23)C1=O [Example 129, Ethyl 5-[(1H-pyrrolo[2,3-b]pyridin-3-yl)methylene]-2-({4-[(dimethylamino)methyl]-2-methylphenyl}amino)-4-oxo-4,5-dihydrofuran-3-carboxylate] | < 20% | 9 nM | – |
| O=C1C=C(Nc2ccc3[nH]ncc3c2)O/C1=C\c1c[nH]c2ncccc12 [Example 239, 2-[(1H-Pyrrolo[2,3-b]pyridin-3-yl)methylene]-5-[(5-indazolyl)amino]furan-3(2H)-one] | 20 to 50% | – | 1 nM |
| CCOC(=O)C1=C(N2CCc3ccccc3C2)O/C(=C\c2c[nH]c3ncccc23)C1=O [Example 102, Ethyl 5-[(1H-pyrrolo[2,3-b]pyridin-3-yl)methylene]-2-(3,4-dihydroisoquinolin-2(1H)-yl)-4-oxo-4,5-dihydrofuran-3-carboxylate] | < 20% | 4 nM | – |
| CCOC(=O)C1=C(N2CCCCCC2)O/C(=C\c2c[nH]c3ncccc23)C1=O [Example 63] | < 20% | – | – |
